# Test results taken from US20230331803A1, “CO-AGONISTS OF THE GLP-1 AND AMYLIN RECEPTORS” (priority 2020, published 2023).
# Starred links: 1 amine or outer side, 2 acyl side, 3 side chain; linkers in the order of their positions; H or OH if unused. Non-standard residues stand in square brackets, D forms with d. Groups on a side chain read outwards from the residue. *: point of attachment. C20 diacid = O=C(O)CCCCCCCCCCCCCCCCCCC(=O)*; C18 diacid = O=C(O)CCCCCCCCCCCCCCCCC(=O)*; γGlu = O=C(O)[C@H](CCC(=O)[*:2])N[*:1]; εLys = N[C@@H](CCCCN[*:1])C(=O)[*:2]; Trx = NC[C@H]1CC[C@H](C(=O)O)CC1; AEEA = NCCOCCOCC(=O)O; Aib = CC(C)(N)C(=O)O
# Experiments:
# human GLP-1 receptor = target: T1, human GLP-1 receptor (Homo sapiens, UniProt P43220); experiment: Human GLP-1 receptor in vitro potency assay (CRE-luciferase reporter, BHK cells); format: cell-based; conditions: for EC50: Table 4a, BHK cells expressing human GLP-1R, CRE-Luc, 3 hours, read-out: Human GLP-1R potency [EC50 (pM)]; for Ability to agonise the GLP-1 receptor, in words: Tables 4a-4c
# T1 construct: expressed in transfected cells; host or cells: BHK (Baby Hamster Kidney) cells, clone BHK 467-12A KZ-10, stably transfected, with CRE-luciferase reporter
# Description: It is thus possible to measure GLP-1 receptor activity using a CRE-luciferase reporter gene introduced into Baby Hamster Kidney (BHK) cells co-expressing the GLP-1 receptor.
# Cells were aliquoted and stored at -180° C. until use.
# Plates were sealed and incubated at room temperature with gentle shaking for 30 minutes while protected from light. Luminescence was detected on a luminescence plate reader e.g. a Synergy 2 (BioTek).
# [1] = target: T2, human amylin receptor (hAmyR3) (Homo sapiens, UniProt O60896+P30988); experiment: Human amylin receptor in vitro potency assay (CRE-luciferase reporter, BHK cells); format: cell-based; conditions: for EC50: Table 4a, BHK hAmyR3/CRE-Luc cells, 3 hours, read-out: Human AmyR3 potency [EC50 (pM)]; for Ability to agonise the amylin receptor, in words: Tables 4a-4c;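 on all read-outs here: BHK cells expressing human calcitonin receptor plus RAMP3 (amylin-3 receptor) with a CRE-luciferase reporter, agonist activity read as luminescence from cAMP-driven transcription, 7-point serial dilutions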
# T2 construct: host or cells: BHK cells (Hollex-1 line: human calcitonin receptor (a) + CRE-Luc), further transfected with human RAMP3
# [2] = Pharmacokinetic studies in Beagle dogs after oral administration of SNAC-based tablets; format: in vivo; conditions: dog, in vivo, po; for Tmax / T½ / half-life: male, Beagle; for half-life: T½ (hr)
# Method in brief: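 Plasma exposure of GLP-1/amylin co-agonists measured by LCMS over up to 240 h after peroral dosing of SNAC tablets (100–300 mg SNAC, 3–4 mg compound) to overnight-fasted male Beagles. Some dogs pre-dosed s.c. with ~3 nmol/kg SEQ ID NO: 237; PK by NCA.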
# Sprague Dawley (SD) rats = experiment: Acute food intake in ad libitum fed rats after a single subcutaneous administration; format: in vivo, rat; conditions: for Food intake relative to vehicle (%) 0-24 hr, 10 nmol/kg / Food intake relative to vehicle (%) 24-48 hr, 10 nmol/kg: rat, single administration;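 on all read-outs here: food intake monitored in the HM2 system, three rats per cage kept on a reversed light cycle, with food and water freely available after the subcutaneous dose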
# Excerpt: Sprague Dawley (SD) rats from Taconic Europe, Denmark were used for the acute food intake experiments, wherein the principles of laboratory animal care were followed.
# The rats arrived at least 10-14 days before the start of the experiment to allow acclimatisation to experimental settings. During this period, the animals were handled at least 2 times. Immediately upon arrival, rats were put on a reversed light cycle (dark from 11am - 11pm) and put in the HM2 system and ID chipped. Three rats were housed in each cage. […] The rats were dosed once according to body weight with a 0.01-3 mg/kg solution administered subcutaneously (sc). The time of dosing was recorded for each group.
# After dosing, the rats were returned to their home cages, where they had access to food and water. […] At the end of the experimental session, the animals were euthanised.
# T1 sequence (P43220 24-463): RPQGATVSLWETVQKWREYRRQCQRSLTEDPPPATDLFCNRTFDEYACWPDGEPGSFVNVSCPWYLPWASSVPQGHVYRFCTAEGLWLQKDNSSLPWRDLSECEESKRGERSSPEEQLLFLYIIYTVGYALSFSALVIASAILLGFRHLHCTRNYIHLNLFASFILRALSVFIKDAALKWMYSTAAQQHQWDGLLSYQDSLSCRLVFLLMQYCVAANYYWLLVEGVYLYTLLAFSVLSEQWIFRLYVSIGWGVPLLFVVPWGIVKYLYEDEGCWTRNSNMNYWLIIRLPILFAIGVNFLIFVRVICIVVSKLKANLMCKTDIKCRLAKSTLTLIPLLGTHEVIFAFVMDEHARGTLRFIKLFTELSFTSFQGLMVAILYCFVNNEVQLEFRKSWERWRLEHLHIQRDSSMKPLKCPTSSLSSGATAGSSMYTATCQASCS
# T2 sequence (P30988 25-474): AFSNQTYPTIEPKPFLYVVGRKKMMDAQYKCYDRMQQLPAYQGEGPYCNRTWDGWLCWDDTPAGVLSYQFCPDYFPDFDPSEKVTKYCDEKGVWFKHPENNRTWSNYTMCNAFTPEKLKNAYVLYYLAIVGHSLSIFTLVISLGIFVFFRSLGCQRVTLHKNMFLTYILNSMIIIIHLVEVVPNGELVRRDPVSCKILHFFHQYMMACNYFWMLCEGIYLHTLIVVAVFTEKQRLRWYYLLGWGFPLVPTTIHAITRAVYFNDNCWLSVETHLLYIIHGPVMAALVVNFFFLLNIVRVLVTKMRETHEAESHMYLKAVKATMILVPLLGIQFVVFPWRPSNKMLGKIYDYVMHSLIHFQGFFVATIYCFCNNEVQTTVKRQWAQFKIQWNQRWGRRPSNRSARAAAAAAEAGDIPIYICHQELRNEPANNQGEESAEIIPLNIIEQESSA
# T2 sequence (O60896 24-148): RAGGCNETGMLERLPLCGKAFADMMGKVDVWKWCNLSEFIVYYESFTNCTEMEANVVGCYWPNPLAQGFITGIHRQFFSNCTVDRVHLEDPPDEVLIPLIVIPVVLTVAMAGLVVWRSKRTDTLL
Substance,EC50 (human GLP-1 receptor),"Ability to agonise the GLP-1 receptor, in words (human GLP-1 receptor)",EC50 [1],"Ability to agonise the amylin receptor, in words [1]",Tmax [2],T½ [2],Tmax ([2]; Tmax (hr)),half-life [2],AUC/D [2],Cmax/D [2],"Food intake relative to vehicle (%) 0-24 hr, 10 nmol/kg (Sprague Dawley (SD) rats; Table 6a)","Food intake relative to vehicle (%) 24-48 hr, 10 nmol/kg (Sprague Dawley (SD) rats; Table 6a)","Food intake relative to vehicle (%) 0-24 hr, 10 nmol/kg (Sprague Dawley (SD) rats; Table 6b)","Food intake relative to vehicle (%) 24-48 hr, 10 nmol/kg (Sprague Dawley (SD) rats; Table 6b)","Inhibition of food intake, in words (Sprague Dawley (SD) rats; rats, 10 nmol/kg)"
H-H[Aib]EGTFTSDVSSYLEEQAAREFIAWLVRGRK([AEEA-AEEA-γGlu-C18 diacid])GGGGEASELSTAALGRLSAELHELATLPRTETGSGSP-NH2 [Compound 0111],3 pM,retained full potency on both receptors,11.5 pM,retained full potency on both receptors,2.0 h,42 h,1.5 h,44 h,,,28%,75%,,,
H-H[Aib]EGTFTSDVSSYLEEQAAREFIAWLVRGRK([AEEA-AEEA-γGlu-C20 diacid])GGGGEASELSTAALGRLSAELHELATLPRTETGSGSP-NH2 [Compound 0502],8.4 pM,,9 pM,,4.0 h,,2 h,66 h,,,61%,72%,,,
H-H[Aib]EGTFTSDVSSYLEEQAAREFIAWLVRGRK([AEEA-AEEA-γGlu-Trx-C20 diacid])GGGGEASELSTAALGRLSAELHELATLPRTETGSGSP-NH2 [Compound 0120],9.1 pM,fully potent on both receptors,10.6 pM,fully potent on both receptors,,22 h,,24 h,,,53%,55%,53%,55%,significant inhibition of food intake within the first 48 hours
H-H[Aib]EGTFTSDVSSYLEGQAAKEFIAWLVRGRK([εLys-AEEA-AEEA-γGlu-C18 diacid])GGEASELSTAALGRLSAELHELATLPRTETGSGSP-NH2 [Compound 0045],19.4 pM,,25.9 pM,,,,1.3 h,41 h,10.90 kg·h/L,0.27 kg/L,46%,80%,,,
H-H[Aib]EGTFTSDVSSYLEGQAAREFIAWLVRGRGQEPK([AEEA-AEEA-γGlu-C18 diacid])GQAPEASELSTAALGRLSAELHELATLPRTETGSGSP-NH2 [Compound 0084],2.5 pM,,14 pM,,,,1.5 h,47 h,15.16 kg·h/L,0.36 kg/L,44%,50%,,,

# Second part, led by results:
EC50 (human GLP-1 receptor),"Ability to agonise the GLP-1 receptor, in words (human GLP-1 receptor)",EC50 [1],"Ability to agonise the amylin receptor, in words [1]",Tmax [2],T½ [2],Tmax ([2]; Tmax (hr)),half-life [2],AUC/D [2],Cmax/D [2],Substance,"Food intake relative to vehicle (%) 0-24 hr, 10 nmol/kg (Sprague Dawley (SD) rats; Table 6a)","Food intake relative to vehicle (%) 24-48 hr, 10 nmol/kg (Sprague Dawley (SD) rats; Table 6a)","Food intake relative to vehicle (%) 0-24 hr, 10 nmol/kg (Sprague Dawley (SD) rats; Table 6b)","Food intake relative to vehicle (%) 24-48 hr, 10 nmol/kg (Sprague Dawley (SD) rats; Table 6b)","Inhibition of food intake, in words (Sprague Dawley (SD) rats; rats, 10 nmol/kg)"
4.7 pM,,6.9 pM,,,,1 h,52 h,8.58 kg·h/L,0.22 kg/L,H-H[Aib]EGTFTSDVSSYLEEQAAREFIAWLVRGRK([εLys-AEEA-AEEA-γGlu-C20 diacid])GGGGEASELSTAALGRLSAELHELATLPRTETGSGSP-NH2 [Compound 0552],56%,55%,,,
8.3 pM,,10.7 pM,,,,2 h,24 h,5.36 kg·h/L,0.21 kg/L,H-H[Aib]EGTFTSDVSSYLEEQAARK([εLys-AEEA-AEEA-γGlu-Trx-C20 diacid])FIEWLVRGRGEASELSTAALGRLSAELHELATLPRTETGSGSP-NH2 [Compound 0439],43%,41%,,,
